The values below come from PMC9728343, “Characterization of CYP125A13, the First Steroid C-27 Monooxygenase from Streptomyces peucetius ATCC27952” (Journal of Microbiology and Biotechnology, 2020).

Assay [1] addresses T1, CYP125A13 (Streptomyces peucetius, UniProt Q70AR4).
T1 construct: gene cyp0266
T1 sequence (Q70AR4 1-413): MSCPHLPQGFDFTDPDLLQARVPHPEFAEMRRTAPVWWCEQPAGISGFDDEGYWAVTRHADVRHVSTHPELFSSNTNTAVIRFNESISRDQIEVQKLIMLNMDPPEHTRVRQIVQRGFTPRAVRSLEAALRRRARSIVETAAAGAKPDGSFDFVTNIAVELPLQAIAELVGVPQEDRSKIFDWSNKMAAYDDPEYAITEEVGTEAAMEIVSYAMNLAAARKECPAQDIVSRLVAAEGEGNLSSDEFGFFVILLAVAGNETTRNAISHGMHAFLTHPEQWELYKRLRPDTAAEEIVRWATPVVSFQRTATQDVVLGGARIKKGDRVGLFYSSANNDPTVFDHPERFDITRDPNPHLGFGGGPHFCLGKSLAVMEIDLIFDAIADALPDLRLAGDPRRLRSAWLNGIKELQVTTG
The assay is described as follows: UV-Vis spectral titration (type I shift), tight-binding quadratic fit; also turnover to 27-hydroxycholesterol with PDX/PDR (Km […]).

Assay [2] has as its target T1, CYP125A13. The assay is described as follows: UV-Vis spectral titration (type I shift), tight-binding quadratic fit; no product formation detected.

Turning to `CC(C)CCC[C@@H](C)[C@H]1CC[C@H]2[C@@H]3CC=C4C[C@@H](O)CC[C@]4(C)[C@H]3CC[C@]12C` [cholesterol], the Kd (usually the concentration at which binding is half-saturated) in assay [1] is 56.9 ± 11.3 µM.

On to `CC(C)CCC[C@@H](C)[C@H]1CC[C@H]2[C@@H]3CCC4=CC(=O)CC[C@]4(C)[C@H]3CC[C@]12C` [4-cholesten-3-one], for which the equilibrium dissociation constant (Kd) in assay [2] was 59.2 ± 3.9 µM.
